Measured values: patent US11950596B2, “Methods of protecting seeds from oxidants and microorganisms” (The United States of America, as represented by the …, priority 2020, dated 2024)
Where two headings read alike, the source gives them in different places. Marks after values point to notes of the source that are not given here.

Legend:
P. chrysogenum 824 = assay: Heat-sensitizing bioassay of OG (MFC) in other fungi; type: cell-based, Penicillium chrysogenum; conditions: 90 seconds
Protocol: (§1) As described in A. flavus 3357 test (see above), microfuge tubes were treated with mild heat (57.5° C.) or maintained at RT (22.0° C.) (90 seconds). After heat treatments, entire volume (200 μL) from each microfuge tube was spread onto fresh recovery LB agar (for bacteria) or PDA (for fungi), and plates were incubated at the optimum temperature for respective microorganisms (i.e., 35° C. for Aspergillus, 37° C. for E. coli, 28° C. for Penicillium/A. tumefaciens, respectively). The growth/survival of test microorganisms were monitored after 48 to 72 hrs of incubation.
(§2) Heat-sensitizing activity of OG against other fungi: Heat-sensitizing activity of OG was then investigated in other fungi (five Aspergillus strains and seven Penicillium strains) including fungicide resistant strains (i.e., P. expansum FR2, FR3 resistant to the conventional fungicide fludioxonil) (see Table 1).

P. italicum 983 = assay: as above; type: cell-based, Penicillium italicum; conditions: 90 seconds
Protocol: as §1, §2

A. flavus 4212 = assay: as above; type: cell-based, Aspergillus flavus; conditions: 90 seconds
Protocol: as §1, §2

[1] = tested on: twelve fungi (Aspergillus and Penicillium); assay: Heat-sensitizing bioassay of OG, average MFC of twelve fungi; type: cell-based; conditions: 90 seconds; for MFC: read-out: average MFC of OG from twelve fungi
Protocol: as §1, §2
(RT) to 57.5° C. (mild heat).

[2] = tested on: A. tumefaciens or E. coli; assay: Heat-sensitizing bioassay of OG, average MBC of bacteria; type: cell-based, Agrobacterium tumefaciens, Escherichia coli; conditions: 90 seconds
Protocol: as §1
Heat-sensitizing activity of OG against bacteria (A. tumefaciens, E. coli): Heat-sensitizing activity of OG was also investigated against bacterial cells (i.e., E. coli and plant-pathogenic A. tumefaciens). […] (Table 4; FIG. 2).

A. flavus 3357 = assay: Antifungal seed disinfection bioassay (OG plus mild heat), A. flavus infection of cabbage seeds; type: in vivo, Aspergillus flavus; conditions: for No. of seedlings infected: 12 seeds; for % A. flavus infection: mean over 20/50° C. and 20/30 min
Protocol: Antifungal seed disinfection bioassays using OG: Effect of OG plus mild heat hurdle technology on the level of seed sanitation (Brassica rapa Pekinensis; Chinese cabbage hybrid) was evaluated. Twelve cabbage seeds (per treatment), unsterilized, were transferred to each 1.5 mL microcentrifuge tube filled with 1 mL (final volume) distilled water, without or with A. flavus (1×10^5 CFU/mL): (1) No OG, no A. flavus inoculum, 20 or 30 min, 20° C.; (2) No OG, no A. flavus inoculum, 20 or 30 min, 50° C.; (3) No OG, w/A. flavus, 20 or 30 min, 20° C.; (4) No OG, w/A. flavus, 20 or 30 min, 50° C.; (5) OG 2 mM, w/A. flavus, 20 or 30 min, 20° C., (6) OG 2 mM, w/A. flavus, 20 or 30 min, 50° C., (7) OG 3 mM, w/A. flavus, 20 or 30 min, 20° C.; (8) OG 3 mM, w/A. flavus, 20 or 30 min, 50° C.; (9) OG 4 mM, w/A. flavus, 20 or 30 min, 20° C.; and (10) OG 4 mM, w/A. flavus, 20 or 30 min, 50° C. After each treatment, the treated seeds (total 12 seeds per treatment) were transferred to PDA and the plates were incubated in the dark at room temperature (RT; 20° C.) for seed germination. After seed germination, the growth of seedlings and fungal germination on the surfaces of germinated seeds were monitored up to 7 days (RT).
Seed disinfection via heat-sensitizing activity of OG: Heat-sensitizing capacity of OG was investigated further with crop seeds (Brassica rapa Pekinensis; Chinese cabbage hybrid) contaminated with A. flavus 3357 on the seed surfaces. OG (0, 2, 3, 4 mM) and mild heat (50° C.; Control: 20° C.) were co-applied for 20 to 30 minutes, and the rates of seed germination were also determined.

P. expansum FR2 = assay: Heat-sensitizing bioassay of OG (MFC) in other fungi; type: cell-based; conditions: Penicillium expansum, fludioxonil resistant mutant
Protocol: as §1, §2

P. expansum FR3 = assay: as above; type: cell-based; conditions: Penicillium expansum, fludioxonil resistant mutant
Protocol: as §1, §2

P. expansum W1 = assay: as above; type: cell-based; conditions: Penicillium expansum, 90 seconds
Protocol: as §1, §2

P. expansum W2 = assay: as above; type: cell-based; conditions: Penicillium expansum, 90 seconds
Protocol: as §1, §2

In the case of `CCCCCCCCOC(=O)c1cc(O)c(O)c(O)c1` [Octyl gallate], the MFC (P. chrysogenum 824; Penicillium chrysogenum, 824, 22.0° C.) is reported as 250 µM, the MFC (P. chrysogenum 824; Penicillium chrysogenum, 824, 57.5° C.) is reported as 130 µM and the MFC (P. italicum 983; Penicillium italicum, 983, 22.0° C.) is reported as 200 µM. The MFC (P. italicum 983; Penicillium italicum, 983, 57.5° C.) was 100 µM, the MFC (A. flavus 4212; Aspergillus flavus, 4212, 22.0° C.) was > 300 µM and the MFC (A. flavus 4212; Aspergillus flavus, 4212, 57.5° C.) was 180 µM. The MFC ([1]; 22.0° C., listed as OG) was >283.3 µM, the “average MFC of OG from twelve fungi” value ([1]; 57.5° C., listed as OG) was 175.8 (p < 0.005) μM and the MFC ([1]; Aspergillus, 22.0° C.) was > 283 µM. The MFC ([1]; Aspergillus, 57.5° C.) was 176 µM, the MBC ([2]; 22° C.) was 250 µM and the MBC ([2]; 57.5° C.) was 75 µM. For the same compound, the “average MBC of OG” value ([2]; 57.5° C., listed as OG) was 75* μM, the “No. of seedlings infected” value (A. flavus 3357; OG 2 mM, 20° C., 20 min) was 12 and the “No. of seedlings infected” value (A. flavus 3357; OG 2 mM, 20° C., 30 min) was 10. For the same compound, the “No. of seedlings infected” value (A. flavus 3357; OG 2 mM, 50° C., 20 min) was 4, the “No. of seedlings infected” value (A. flavus 3357; OG 2 mM, 50° C., 30 min) was 1 and the “% A. flavus infection” value (A. flavus 3357; OG 2 mM) was 57 ± 43%. The “No. of seedlings infected” value (A. flavus 3357; OG 3 mM, 20° C., 20 min) was 10, the “No. of seedlings infected” value (A. flavus 3357; OG 3 mM, 20° C., 30 min) was 10 and the “No. of seedlings infected” value (A. flavus 3357; OG 3 mM, 50° C., 20 min) was 0^d. For the same compound, the “No. of seedlings infected” value (A. flavus 3357; OG 3 mM, 50° C., 30 min) was 0^d, the “% A. flavus infection” value (A. flavus 3357; OG 3 mM) was 42 ± 48% and the “growth of A. flavus contaminated on crop seeds” value (A. flavus 3357; OG 3 mM, mild heat 50° C., 20 to 30 minutes) was “completely inhibited”. The “No. of seedlings infected” value (A. flavus 3357; OG 4 mM, 20° C., 20 min) was 12, the “No. of seedlings infected” value (A. flavus 3357; OG 4 mM, 20° C., 30 min) was 11 and the “No. of seedlings infected” value (A. flavus 3357; OG 4 mM, 50° C., 20 min) was 0^d. The “No. of seedlings infected” value (A. flavus 3357; OG 4 mM, 50° C., 30 min) was 0^d, the “% A. flavus infection” value (A. flavus 3357; OG 4 mM) was 48 ± 56% and the “growth of A. flavus on crop seeds” value (A. flavus 3357; OG as low as 3 mM, mild heat 50° C., 20 min) was “completely inhibited”. For the same compound, the MFC (P. expansum FR2; FR2, read-out: MFC of OG, 22.0° C., 90 seconds) was > 300 µM, the MFC (P. expansum FR2; FR2, read-out: MFC of OG, 57.5° C., 90 seconds) was 190 µM and the MFC (P. expansum FR3; FR3, read-out: MFC of OG, 22.0° C., 90 seconds) was > 300 µM. For the same compound, the MFC (P. expansum FR3; FR3, read-out: MFC of OG, 57.5° C., 90 seconds) was 160 µM, the MFC (P. expansum W1; W1, 22.0° C.) was > 300 µM and the MFC (P. expansum W1; W1, 57.5° C.) was 160 µM. For the same compound, the MFC (P. expansum W2; W2, 22.0° C.) was > 300 µM and the MFC (P. expansum W2; W2, 57.5° C.) was 170 µM.
